Laboratory results reported in paper doi:10.1101/2025.10.13.682155v1 (biorxiv, 2025).

The compounds below were run against T1, hCNPY4 (FLAG-tagged human Canopy4) (Homo sapiens, UniProt Q8N129) (assay: fluorescence polarization, direct titration).
T1 sequence (Q8N129 22-248): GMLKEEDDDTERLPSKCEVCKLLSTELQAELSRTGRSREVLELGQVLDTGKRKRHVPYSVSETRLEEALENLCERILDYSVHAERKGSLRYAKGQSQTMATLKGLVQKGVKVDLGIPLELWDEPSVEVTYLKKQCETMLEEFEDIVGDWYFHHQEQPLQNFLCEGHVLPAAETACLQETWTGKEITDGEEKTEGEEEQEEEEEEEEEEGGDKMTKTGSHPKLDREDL
Assay type: binding
CCCCCCCCCCCCC/C=C/[C@@H](O)[C@H](CO)NC(=O)CCCCCNc1ccc([N+](=O)[O-])c2nonc12 [NBD-ceramide 6:0] was tested, and the Kd was 80 ± 25 nM. Work on CCCCCCCCCCCCC/C=C/[C@@H](O)[C@H](COP(=O)([O-])OCC[N+](C)(C)C)NC(=O)CCCCCNc1ccc([N+](=O)[O-])c2nonc12 [NBD-sphingomyelin 6:0] yielded a Kd of 280 ± 120 nM. CCCCCCCCCCCCC/C=C/[C@@H](O)[C@H](COP(=O)(O)O)NC(=O)CCCCCNc1ccc([N+](=O)[O-])c2nonc12 [NBD-ceramide-1-phosphate 6:0] showed a Kd of 130 ± 40 nM.
